The text below walks through data of patent publication US20190247371A1, “METHODS FOR TREATING SMALL CELL LUNG CANCERS BY USING PHARMACEUTICAL COMPOSITIONS OR COMBINATIONS COMPRISING INDOLIZINO[6,7-B]INDOLE DERIVATIVES” (priority 2016, published 2019).

The subject of series [1] is SCLC H211 cells. Nature of the series: Cell cycle analysis by flow cytometry, H211 cells. In kind it is cell-based. The note with it: 24, 48, 72 h, FIG. 9. How it is done: H211 cells were treated with various concentrations of (A) BO-1978, (B) BMN-673, or (C) BO-1978 plus BMN-673 at 24, 48, and 72 h. At the end of treatment, the cells were harvested by trypsinization, fixed in ice-cold ethanol, stained with propidium iodide, and subjected to cell cycle analysis with a flow cytometer.
In the present invention, the SCLC H211 cells were treated with the combination of BO-1978 and BMN 673 or HY-10130 for 72 h. Cell survival was analyzed by PrestoBlue Assay. The combination index (CI) was calculated using CompuSyn software (Chou 2006^61).
(In general: A flow cytometer gives signals particle by particle.)

In another series the test system is SCLC H526 xenografts. Nature of the series: SCLC H526 xenograft, BO-1978 and irinotecan alone or in combination. In kind it is in vivo, nude mice. How it is done:
H526 cells (1×10^7) were subcutaneously implanted into nude mice. When tumor size reached 100-200 mm^3, BO-1978 and irinotecan, either alone or in combination were i.v. administered as indicated. Tumor size and body weight were taken at the time indicated A, tumor size; and B, body weight.
The mice (n=5) bearing SCLC H526 xenografts were treated with BO-1978 (alone, 40 mg/kg, Q2D×5), irinotecan (alone, 30 mg/kg, Q2D×5), and BO-1978 (40 mg/kg)+irinotecan (30 mg/kg) (Q2D×5) via iv inj.

The test system of series [2] is H211 cells. The experiment in a line: alamarBlue cytotoxicity assay, SCLC H211 cells. Format: cell-based. To be noted: read-out: IC50, concentration required to inhibit cell growth by 50%. How it is done:
(§1) The inhibitory effect of BO-1978 on the cell growth of SCLC cell lines in vitro was examined. The cytotoxicity was assayed using alamarBlue® reagent (AbD Serotec) as previously described in U.S. Pat. No. 8,703,951 B2. In brief, H82, H211 and H526 cells were seeded to a 96 well plate with 5000, 1000 and 3000 cells per well, respectively, and incubated for 24 h. The growing cells were treated with BO-1978, cisplatin, etoposide or irinotecan at serial-diluted concentrations for 72 h at 37° C. An aliquot of alamarBlue® reagent (AbD Serotec) was added and the cultures were incubated for 5 h. The fluorescence at excitation 530 nm and emission 590 nm was read with a plate reader. The proliferation rate was calculated according to the manufacturer's instruction. The values of IC50 (50% inhibition concentration) for each compound were determined from dose-effect relationship using the CompuSyn software (Chou 2010^44).
In general terms: Alamar Blue is a resazurin reagent that responds to reducing activity.

Series [3] deals with H526 cells. Nature of the series: alamarBlue combined treatment cytotoxicity, H526 cells. The note with it: co-treated with irinotecan at various ratios, 72 h, FIG. 4. In kind it is cell-based. The method, then: Cell survival was analyzed using alamarBlue assay. CI indicates combination index A, BO-1978 and cisplatin; B, BO-1978 and etoposide; and C, BO-1978 and irinotecan.
(§2) Combination therapy is therapy that uses more than one drug for therapy. […] The resulting combination index (CI) theorem of Chou-Talalay offers quantitative definition for additive effect (CI=1), synergism (CI<1), and antagonism (CI>1) in drug combinations (Chou 2010^44).

The next series has as its system H82 cells. Nature of the series: alamarBlue cytotoxicity assay, SCLC H82 cells. To be noted: read-out: IC50, concentration required to inhibit cell growth by 50%. In kind it is cell-based. How it is done:
as §1

For series [4] the following is noted: preclinical toxicity studies; cited from earlier work.
The subject of series [5] is SCLC H211 cells. The experiment in a line: SCLC H211 tumor xenograft model, single agents. Format: in vivo, nude mice. To be noted: same dosages and route as H526 study, FIG. 3. How it is done:
H211 (3×10^6) were subcutaneously implanted into nude mice. When rumor size reached 100-200 mm^3, BO-1978, etoposide, irinotecan, and cisplatin were i.v. administered as indicated. Tumor size and body weight were taken at the time indicated. A, tumor size; and B, body weight.
In another experiment, the effect of BO-1978 on the inhibition of SCLC H211 cells, a fast growing cell line, was evaluated in xenograft model. Mice were treated with the tested compounds under the same dosages and administration route as described above.

The test system of series [6] is EGFR wild-type and mutant NSCLC tumors. The note with it: cited from earlier work.
A further series has as its system SCLC H526 cells. The experiment in a line: SCLC H526 tumor xenograft model, single agents. In kind it is in vivo. The note with it: for body weight change: doses within MTD: BO-1978 40 mg/kg QD×5, etoposide 10 mg/kg Q2D×3, irinotecan 30 mg/kg QD×6, cisplatin 6 mg/kg Q4D×3, FIG. 2B. The method, then:
H526 cells (1×10^7) were subcutaneously implanted into nude mice. […] Tumor size and body weight were taken at the time indicated. A, average tumor size changes; B, average body weight changes; and C, Kaplan-Meyer survival curves.
The animals used in this study were treated exactly according to the guidelines of the Academia Sinica Institutional Animal Care and Utilization Committee. Male athymic nude mice in 5 weeks of age were obtained from the National Laboratory Animal Center (Taipei, Taiwan) and housed for 1 week before performing experiments H526 cells (1×10^7) were subcutaneously implanted into nude mice (five groups, each 4 mice). […] Etoposide (10 mg/kg Q2D×3), irinotecan (30 mg/kg QD×6), and cisplatin (6 mg/kg Q4D×3) were used as the positive control and were administered as indicated.

The next series concerns PC9/gef B4 cells. To be noted: cited from earlier work.
Series [7] has as its system H526 cells. Nature of the series: alamarBlue cytotoxicity assay, SCLC H526 cells. Format: cell-based. To be noted: read-out: IC50, concentration required to inhibit cell growth by 50%. How it is done:
as §1

For a further series, the system named is NSCLC cells. The note with it: in vitro; cited from earlier work.
Another series has as its system SCLC H211. Nature of the series: SCLC H211 xenograft, BO-1978 and irinotecan alone or in combination. Format: in vivo, nude mice. The source says:
H211 cells (3×10^6) were subcutaneously implanted into nude mice. When tumor size reached 100-200 mm^3, BO-1978 and irinotecan, cither alone or in combination were i.v. administered as indicated. Tumor size and body weight were taken at the time indicated. A, tumor size; and B, body weight.
In another experiment, the therapeutic efficacy of BO-1978 (alone) or in combination with irinotecan against SCLC H211 was investigated in xenograft models (FIG. 7). The H211 bearing mice (n=5) were administered with BO-1978 (alone, 40 mg/kg, QD×5), irinotecan (alone, 30 mg/kg, QD×5), and BO-1978 (40 mg/kg)+irinotecan (30 mg/kg) (QD×5) via iv inj.

For series [8], the system named is H211 cells. The experiment in a line: alamarBlue combined treatment cytotoxicity, H211 cells. Format: cell-based. To be noted: co-treated with irinotecan at various ratios, 72 h, FIG. 5. How it is done:
H211 cells were seeded and treated with various concentrations of BO-1978, or therapeutic agents either alone or in combination for 72 h. Cell survival was analyzed using alamarBlue assay. CI indicates combination index. A, BO-1978 and cisplatin; B, BO-1978 and etoposide; and C, BO-1978 and irinotecan.
as §2

Like-named read-outs stand apart in the source and are kept apart here.

As for `Cn1ncnc1[C@H]1c2n[nH]c(=O)c3cc(F)cc(c23)N[C@@H]1c1ccc(F)cc1` [BMN 673, (8S,9R)-5-Fluoro-8-(4-fluorophenyl)-9-(1-methyl-1H-1,2,4-triazol-5-yl)-2,7,8,9-tetrahydro-3H-pyrido[4,3,2-de]phthalazin-3-one, reference compound], in the series on SCLC H211 cells [1], the “effect on G2/M phase of cell cycle” value is “delayed the progression of the G2/M phase” and the “subG1 cells (apoptotic death)” value is listed as “did not induce subG1 cells”.
In the case of `CCc1c(CO)c(CO)c2n1Cc1c(c3ccccc3n1C)C2` [BO-1978, [3-ethyl-6-methyl-6,11-dihydro-5H-indolizino[6,7-b]indole-1,2-diyl]dimethanol], in the series with SCLC H526 xenografts (40 mg/kg Q2D×5 iv, n=5), the tumor growth suppression entry was “significantly suppressed tumor growth”. Further, in the series on SCLC H526 xenografts (day 14, Q2D×5 iv), the “mice with complete remission (CR)” value is listed as 4/5 and the “mice with tumor <100 mm3” value is on record as 1/5. The IC50 in the series on H211 cells [2] (Homo sapiens, NCI-H211, H211, 72 h, mean ± S.D. of 3 independent experiments) worked out at 0.148 ± 0.001 µM. Also, in the series with H526 cells [3], the cytotoxicity of co-treatment entry is listed as “enhanced the cytotoxicity”. Besides, in the series on SCLC H211 cells [1], the “effect on G2/M phase of cell cycle” value is “induced severe G2/M arrest” and the “subG1 cells (apoptotic death)” value is on record as “appearance of the subG1 cells at high doses”. Further, in the series on H82 cells (Homo sapiens, NCI-H82, H82, 72 h, mean ± S.D. of 3 independent experiments), the IC50 stood at 0.35 ± 0.28 µM. The toxicity in mice entry in series [4] is listed as “does not cause apparent toxicity”. Further, the “inhibition of tumor growth” value in the series on SCLC H211 cells [5] is on record as “more potent than the drugs used for comparison”. Moreover, the body weight loss result in series [6] (xenograft and orthotopic lung tumor models) is reported as “negligible body weight loss”. For the same compound, the “therapeutic efficacy in nude mice bearing NSCLC” value in series [6] (xenograft and orthotopic models) was “potent therapeutic efficacy”. The “therapeutic effect on tumor size” value in the series on SCLC H526 cells (BO-1978 40 mg/kg QD×5 iv, FIG. 2A) was “more efficacious than etoposide, irinotecan and cisplatin”. Besides, the body weight change entry in the series with SCLC H526 cells was “did not cause body weight lost”. In the series on SCLC H526 cells (one out of 4 mice, FIG. 2C), this compound came in with a survival term above 430 days. Moreover, in the series with PC9/gef B4 cells, the “killing of cells with acquired gefitinib resistance” value is reported as “effectively kills”. Besides, the IC50 with H526 cells [7] (Homo sapiens, NCI-H526, H526, 72 h, mean ± S.D. of 3 independent experiments) was 0.076 ± 0.026 µM. Besides, the “cytotoxicity against cell growth of various NSCLC cells” value in the series on NSCLC cells is given as “significant cytotoxicity”. In the series with SCLC H211 (40 mg/kg QD×5 iv, n=5), the “therapeutic efficacy, mono-drug comparison” value is reported as “more potent than irinotecan (alone)”. Also, in the series on SCLC H211 (QD×5 iv), the “day of tumor relapse” value stood at 18 days and the “day tumor CR was seen” value is 14 days. Further, the cytotoxicity of co-treatment result in the series with H211 cells [8] was “enhanced the cytotoxicity”.
`N.N.[Cl][Pt][Cl]` [Cisplatin, cis-diaminedichloroplatinum]: the IC50 in the series with H211 cells [2] (H211, 72 h, mean ± S.D. of 3 independent experiments) came to 0.57 ± 0.29 µM; with H82 cells (H82, 72 h, mean ± S.D. of 3 independent experiments) it was 0.34 ± 0.08 µM; in the series on H526 cells [7] (H526, 72 h, mean ± S.D. of 3 independent experiments), 0.66 ± 0.25 µM. Also, in the series on SCLC H526 cells, the “day mice were sacrificed because tumor size was over 2,500 mm^3” value came to 35 days. Also, the body weight change entry in the series on SCLC H526 cells is “did not cause body weight lost”.
As for `COc1cc([C@@H]2c3cc4c(cc3[C@@H](O[C@@H]3O[C@@H]5CO[C@@H](C)O[C@H]5[C@H](O)[C@H]3O)[C@H]3COC(=O)[C@H]23)OCO4)cc(OC)c1O` [Etoposide], the IC50 worked out at 0.07 ± 0.03 µM with H211 cells [2] (Homo sapiens, NCI-H211, 72 h); 0.146 ± 0.002 µM in the series with H82 cells (Homo sapiens, NCI-H82, 72 h); 0.05 ± 0.02 µM in the series with H526 cells [7] (Homo sapiens, NCI-H526, 72 h). Besides, the “day mice were sacrificed because tumor size was over 2,500 mm^3” value with SCLC H526 cells was found to be 35 days. Besides, in the series with SCLC H526 cells, the body weight change entry is “did not cause body weight lost”.
Regarding `CCc1c2c(nc3ccc(OC(=O)N4CCC(N5CCCCC5)CC4)cc13)-c1cc3c(c(=O)n1C2)COC(=O)[C@]3(O)CC` [Irinotecan], the “day of tumor relapse” value with SCLC H526 xenografts (30 mg/kg Q2D×5 iv) came to 15 days. The IC50 with H211 cells [2] (Homo sapiens, NCI-H211, 72 h) was found to be 0.03 ± 0.01 µM; in the series with H82 cells (Homo sapiens, NCI-H82, 72 h), 1.2 ± 0.07 µM; with H526 cells [7] (Homo sapiens, NCI-H526, 72 h) it was 1.18 ± 0.57 µM. Also, the “day mice were sacrificed because tumor size was over 2,500 mm^3” value in the series with SCLC H526 cells is 45 days. Further, the body weight change result with SCLC H526 cells is reported as “did not cause body weight lost”.
